Tests used:
CaCo-2 cells = assay: CaCo2 transport assay; format: in vitro ADME; conditions: 50 μM in donor compartment
Procedure: Performance of selected compounds in a CaCo2 assay: Caco-2 cell culture and transport experiments were performed according to Yee (Yee, S., Pharm. Res., 14(6): 763-766 (1997)), but slight modifications were introduced. The cultivation times were reduced from 21 to 10 days by increasing the sowing density from 6.3·10^4 to 1.65·10^5 cells per well. […] The initial concentration of the compounds in the donor compartment was 50 μM (in buffer with 1% ethanol or DMSO). Samples were taken from the acceptor side after 60, 120 and 180 min and from the donor side after 0 and 180 min. For glycoprotein P (P-gp) studies, bidirectional experiments were performed. The absorptive and secretory permeabilities (Papp (a-b) and Papp (b-a)) were determined. Thus, erythromycin was used as a substrate, and verapamil was used as an inhibitor of P-gp. Each experiment was performed in triplicate. The integrity of the monolayer was determined by means of TEER (transepithelial electric resistance) and the permeability for each assay was determined using Lucifer Yellow. All samples of the CaCo-2 transport experiments were analyzed by means of LC/MS/MS after dilution with buffer (1:1 with 2% acetic acid). The apparent permeability coefficient (Papp) was calculated by means of the formula given below, where dQ/dt represents the recovery rate of the mass in the acceptor compartment, A represents the surface area of the transwell membrane, and c0 represents the initial concentration in the donor compartment.

CYP2C19 = target: T1, CYP2C19 (Homo sapiens, UniProt P33261); assay: Inhibition of hepatic CYP enzymes: CYP2C19; format: biochemical; conditions: read-out: CYP2C19 IC50 (mean ± SD)
T1 construct: purchased Becton Dickinson GmbH (Heidelberg)
Excerpt: (§1) Drug interactions (inhibition of hepatic CYP enzymes): The inhibition of six human hepatic cytochrome P450 enzymes by selected compounds was examined by means of the kit supplied by Becton Dickinson GmbH (Heidelberg).

CYP2D6 = target: T2, CYP2D6 (Homo sapiens, UniProt P10635); assay: Inhibition of hepatic CYP enzymes: CYP2D6; format: biochemical; conditions: read-out: CYP2D6 IC50 (mean ± SD)
T2 construct: purchased Becton Dickinson GmbH (Heidelberg)
Excerpt: as §1

CYP2B6 = target: T3, CYP2B6 (Homo sapiens, UniProt P20813); assay: Inhibition of hepatic CYP enzymes: CYP2B6; format: biochemical; conditions: read-out: CYP2B6 IC50 (mean ± SD)
T3 construct: purchased Becton Dickinson GmbH (Heidelberg)
T3 sequence (P20813 1-491): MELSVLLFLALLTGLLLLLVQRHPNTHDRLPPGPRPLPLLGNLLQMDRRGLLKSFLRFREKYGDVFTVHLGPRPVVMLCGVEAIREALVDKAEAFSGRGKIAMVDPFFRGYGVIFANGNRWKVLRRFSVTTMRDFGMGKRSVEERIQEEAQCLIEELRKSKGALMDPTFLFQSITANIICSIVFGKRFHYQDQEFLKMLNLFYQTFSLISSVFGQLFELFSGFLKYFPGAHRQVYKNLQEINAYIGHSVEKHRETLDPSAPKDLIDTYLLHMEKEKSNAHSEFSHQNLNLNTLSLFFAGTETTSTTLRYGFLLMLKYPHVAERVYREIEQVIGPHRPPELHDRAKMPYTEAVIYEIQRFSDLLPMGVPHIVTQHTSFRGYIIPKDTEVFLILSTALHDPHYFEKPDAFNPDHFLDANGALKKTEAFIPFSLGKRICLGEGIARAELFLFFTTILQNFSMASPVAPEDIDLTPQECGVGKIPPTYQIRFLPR
Excerpt: as §1

17β-HSD1 = target: T4, 17β-HSD1 (Homo sapiens, UniProt P14061); assay: Inhibition of 17β-HSD1 (estrone to estradiol, radio-HPLC); format: biochemical; conditions: for IC50: human placenta enzyme, 500 nM estrone, NADH 500 μM; for Selectivity IC50 (17β-HSD2)/IC50 (17β-HSD1): ratio of IC50 values
T4 construct: In both cases, human placenta served as the enzyme source; from tissue; host or cells: human placenta
T4 sequence (P14061 1-328): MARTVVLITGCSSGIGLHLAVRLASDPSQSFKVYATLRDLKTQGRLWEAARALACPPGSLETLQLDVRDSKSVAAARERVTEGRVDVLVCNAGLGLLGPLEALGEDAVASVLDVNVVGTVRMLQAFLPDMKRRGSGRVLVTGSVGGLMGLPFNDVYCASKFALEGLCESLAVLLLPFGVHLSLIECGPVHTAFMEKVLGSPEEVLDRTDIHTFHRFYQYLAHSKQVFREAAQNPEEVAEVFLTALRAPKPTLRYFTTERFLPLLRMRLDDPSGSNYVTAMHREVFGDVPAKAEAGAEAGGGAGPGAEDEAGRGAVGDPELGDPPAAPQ

CYP1A2 = target: T5, CYP1A2 (Homo sapiens, UniProt P05177); assay: Inhibition of hepatic CYP enzymes: CYP1A2; format: biochemical; conditions: read-out: CYP1A2 IC50 (mean ± SD)
T5 construct: purchased Becton Dickinson GmbH (Heidelberg)
T5 sequence (P05177 1-516): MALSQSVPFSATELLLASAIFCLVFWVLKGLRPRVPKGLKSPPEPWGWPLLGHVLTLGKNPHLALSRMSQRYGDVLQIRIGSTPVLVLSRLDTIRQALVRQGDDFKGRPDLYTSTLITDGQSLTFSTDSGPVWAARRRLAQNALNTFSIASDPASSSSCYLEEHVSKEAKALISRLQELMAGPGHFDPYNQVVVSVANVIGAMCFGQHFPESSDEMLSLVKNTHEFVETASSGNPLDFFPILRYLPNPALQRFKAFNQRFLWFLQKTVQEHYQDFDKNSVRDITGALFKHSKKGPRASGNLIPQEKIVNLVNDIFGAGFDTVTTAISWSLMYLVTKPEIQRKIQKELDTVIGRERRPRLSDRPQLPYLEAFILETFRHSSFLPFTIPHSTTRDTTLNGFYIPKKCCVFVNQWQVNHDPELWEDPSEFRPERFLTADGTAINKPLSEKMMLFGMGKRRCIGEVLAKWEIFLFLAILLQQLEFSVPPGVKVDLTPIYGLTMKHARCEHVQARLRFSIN
Excerpt: as §1

T1 sequence (P33261 whole entry): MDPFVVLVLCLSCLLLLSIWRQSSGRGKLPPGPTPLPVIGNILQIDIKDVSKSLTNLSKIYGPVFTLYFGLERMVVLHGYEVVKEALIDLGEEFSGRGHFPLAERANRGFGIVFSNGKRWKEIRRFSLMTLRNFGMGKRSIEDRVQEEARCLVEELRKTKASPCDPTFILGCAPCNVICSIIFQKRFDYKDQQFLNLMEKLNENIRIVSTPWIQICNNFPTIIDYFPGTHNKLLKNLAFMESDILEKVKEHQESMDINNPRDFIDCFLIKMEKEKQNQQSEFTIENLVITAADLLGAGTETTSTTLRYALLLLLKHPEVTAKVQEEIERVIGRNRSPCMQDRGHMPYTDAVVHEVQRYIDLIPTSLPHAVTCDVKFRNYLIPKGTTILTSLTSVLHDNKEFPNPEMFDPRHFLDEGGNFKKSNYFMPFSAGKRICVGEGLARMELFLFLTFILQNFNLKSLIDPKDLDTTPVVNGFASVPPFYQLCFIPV
T2 sequence (P10635 whole entry): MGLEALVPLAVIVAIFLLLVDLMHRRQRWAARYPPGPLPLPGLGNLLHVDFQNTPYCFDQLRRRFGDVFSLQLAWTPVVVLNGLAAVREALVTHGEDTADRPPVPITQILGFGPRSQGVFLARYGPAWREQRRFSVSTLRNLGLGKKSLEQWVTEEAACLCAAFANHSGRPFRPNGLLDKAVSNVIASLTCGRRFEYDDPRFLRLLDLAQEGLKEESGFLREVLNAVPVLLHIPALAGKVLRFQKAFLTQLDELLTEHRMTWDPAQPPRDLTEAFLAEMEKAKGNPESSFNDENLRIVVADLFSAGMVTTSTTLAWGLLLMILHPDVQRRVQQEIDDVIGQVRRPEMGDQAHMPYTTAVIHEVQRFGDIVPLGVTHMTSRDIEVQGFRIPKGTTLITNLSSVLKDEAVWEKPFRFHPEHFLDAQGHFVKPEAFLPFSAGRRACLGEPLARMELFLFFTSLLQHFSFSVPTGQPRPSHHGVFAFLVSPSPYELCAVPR

SMILES	Permeability (class in words) (CaCo-2 cells)	IC50 (CYP2C19) [µM]	IC50 (CYP2D6) [µM]	IC50 (CYP2B6) [µM]	IC50 (17β-HSD1) [µM]	Selectivity IC50 (17β-HSD2)/IC50 (17β-HSD1) (17β-HSD1)	IC50 (CYP1A2) [µM]	Papp [cm/sec ± rel. SD] (CaCo-2 cells)
Oc1ccc(-c2ccsc2-c2cccc(O)c2)cc1 [Compound 28, 3-[3-(4-Hydroxyphenyl)-2-thienyl]phenol]	high	3.37 ± 0.12	6.99 ± 0.02	18.8 ± 2.05	3.4	0.5	5.35 ± 0.24	–
Oc1cccc(-c2ccc(-c3cccc(O)c3)cc2)c1 [Compound 42, [1,1′,4′,1″]Terphenyl-3,3′-diol]	high	4.2 ± 0.29	22 ± 0.29	7.68 ± 0.92	0.11	21	17.2 ± 1.16	(12.5 ± 9.0) · 10^−6 cm/sec
